The record followed here is ChEMBL document CHEMBL5647694, “Novel orally bioavailable EZH1/2 dual inhibitors with greater antitumor efficacy than an EZH2 selective inhibitor” (Cancer Sci, 2017).

The target in assay [1] is MAP/microtubule affinity-regulating kinase 3 (Homo sapiens) (UniProt P27448). In words: Inhibition of N-terminal GST-fused full length human MARK3 (1 to 729 residues) expressed in baculovirus expression system using CHKtide as substrate at 1 uM in presence of ATP by Mobility shift assay.
In assay [2] the target is Protein kinase C beta type (Homo sapiens) (UniProt P05771). In words: Inhibition of N-terminal GST-fused human full length PKC-beta2 (1 to 673 residues ) expressed in baculovirus expression system using PKC peptide as substrate at 1 uM in presence of ATP by Mobility shift assay.
For assay [3], the target named is Fibroblast growth factor receptor 2 (Homo sapiens) (UniProt P21802). In words: Inhibition of N-terminal GST-fused human FGFR2 cytoplasmic domain (399 to 821 residues) expressed in baculovirus-infected Sf21 cells using CSKtide as substrate at 1 uM in presence of ATP by Mobility shift assay.
For assay [4], the target named is Death-associated protein kinase 1 (Homo sapiens) (UniProt P53355). In words: Inhibition of N-terminal GST-fused human DAPK1 catalytic domain (1 to 289 residues) expressed in baculovirus expression system using DAPK1tide as substrate at 1 uM in presence of ATP by Mobility shift assay.
Assay [5] deals with Protein kinase C gamma type (Homo sapiens) (UniProt P05129). In words: Inhibition of N-terminal GST-fused human full length PKC-gamma(1 to 697 residues ) expressed in baculovirus expression system using PKC peptide as substrate at 1 uM in presence of ATP by Mobility shift assay.
The target in assay [6] is MAP kinase-activated protein kinase 5 (Homo sapiens) (UniProt Q8IW41). In words: Inhibition of N-terminal GST-fused full length human MAPKAPK5 (1 to 471 residues) expressed in baculovirus expression system using GS peptide as substrate at 1 uM in presence of ATP by Mobility shift assay.
In assay [7] the target is CDK6/cyclin D3 (Homo sapiens) (UniProt P30281+Q00534). In words: Inhibition of N-terminal GST-tagged full length human CDK6 (1 to 326 residues)/GST-tagged human CyclinD3 (1 to 292 residues) expressed in baculovirus-infected Sf21 cells using DYRKtide-F as substrate at 1 uM in presence of ATP by Mobility shift assay.
For assay [8], the target named is Interferon-induced, double-stranded RNA-activated protein kinase (Homo sapiens) (UniProt P19525). In words: Inhibition of N-terminal GST-fused human PKR catalytic domain (252 to 551 residues) expressed in baculovirus expression system using SRPKtide as substrate at 1 uM in presence of ATP by IMAP.
The target in assay [9] is [Pyruvate dehydrogenase (acetyl-transferring)] kinase isozyme 4, mitochondrial (Homo sapiens) (UniProt Q16654). In words: Inhibition of N-terminal GST-fused full length human PDHK4 (1 to 411 residues) expressed in Escherichia coli expression system using PDHKtide as substrate at 1 uM in presence of ATP by Mobility shift assay.
For assay [10], the target named is Muscle, skeletal receptor tyrosine-protein kinase (Homo sapiens) (UniProt O15146). In words: Inhibition of N-terminal GST-fused human MUSK catalytic domain (527 to 869 residues) expressed in baculovirus-infected Sf21 cells using CSKtide as substrate at 1 uM in presence of ATP by Mobility shift assay.
In assay [11] the target is SRSF protein kinase 2 (Homo sapiens) (UniProt P78362). In words: Inhibition of N-terminal GST-fused full length human SRPK2 (1 to 688 residues) expressed in baculovirus expression system using DYRKtide-F as substrate at 1 uM in presence of ATP by Mobility shift assay.
Assay [12] deals with Dual specificity tyrosine-phosphorylation-regulated kinase 1A (Homo sapiens) (UniProt Q13627). In words: Inhibition of N-terminal GST-fused full length human DYRK1A (1 to 763 residues) expressed in baculovirus expression system using DYRKtide-F as substrate at 1 uM in presence of ATP by Mobility shift assay.
Assay [13] has as its target Serine/threonine-protein kinase 4 (Homo sapiens) (UniProt Q13043). In words: Inhibition of N-terminal GST-fused full length human MST1 (1 to 487 residues) expressed in baculovirus expression system using IRS1 as substrate at 1 uM in presence of ATP by Mobility shift assay.
Assay [14] concerns the target MAP kinase-interacting serine/threonine-protein kinase 1 (Homo sapiens) (UniProt Q9BUB5). In words: Inhibition of N-terminal GST-fused full length human MNK1 (1 to 424 residues) expressed in baculovirus expression system using RS peptide as substrate at 1 uM in presence of ATP by Mobility shift assay.
Assay [15] has as its target Non-receptor tyrosine-protein kinase TYK2 (Homo sapiens) (UniProt P29597). In words: Inhibition of N-terminal GST-tagged human TYK2 catalytic domain (871 to 1187 residues) expressed in baculovirus-infected Sf21 cells using Srctide as substrate at 1 uM in presence of ATP by Mobility shift assay.
For assay [16], the target named is Casein kinase II alpha/beta (Homo sapiens) (UniProt P67870+P68400). In words: Inhibition of N-terminal GST-fused full length human CK2alpha1 (1 to 391 residues)/His-tagged human CK2beta (1 to 215 residues) expressed in baculovirus expression system using CK2tide as substrate at 1 uM in presence of ATP by Mobility shift assay.
The target in assay [17] is Citron Rho-interacting kinase (Homo sapiens) (UniProt O14578). In words: Inhibition of N-terminal GST-fused human CRIK catalytic domain (1 to 449 residues) expressed in baculovirus expression system using Histone H3 peptide as substrate at 1 uM in presence of ATP by Mobility shift assay.
The target of assay [18] is Mitogen-activated protein kinase 9 (Homo sapiens) (UniProt P45984). In words: Inhibition of N-terminal GST-fused human JNK2 catalytic domain (1 to 364 residues) expressed in Escherichia coli expression system using Modified ERKtide as substrate at 1 uM in presence of ATP by Mobility shift assay.
Assay [19] deals with Tyrosine-protein kinase ABL2 (Homo sapiens) (UniProt P42684). In words: Inhibition of N-terminal GST-fused truncated human ARG (2 to 52, 74 to 1182 residues) expressed in baculovirus-infected Sf21 cells using ABLtide as substrate at 1 uM in presence of ATP by Mobility shift assay.
Assay [20] deals with Focal adhesion kinase 1 (Homo sapiens) (UniProt Q05397). In words: Inhibition of N-terminal GST-fused truncated human FAK (376 to 1052 residues) expressed in baculovirus-infected Sf21 cells using Blk/Lyntide as substrate at 1 uM in presence of ATP by Mobility shift assay.
Assay [21] addresses PI3-kinase p110-alpha/p85-alpha (Homo sapiens) (UniProt P27986+P42336). In words: Inhibition of N-terminal DYKDDDDK tagged, biotinylated full length human PIK3CA (1 to 1068 residues)/human PIK3R1 (1 to 724 residues) expressed in baculovirus expression system using PI(4,5)P2 as substrate at 1 uM in presence of ATP by ADP-Glo assay.
In assay [22] the target is Homeodomain-interacting protein kinase 1 (Homo sapiens) (UniProt Q86Z02). In words: Inhibition of N-terminal GST-fused human HIPK1 catalytic domain (158 to 555 residues) expressed in baculovirus expression system using DYRKtide-F as substrate at 1 uM in presence of ATP by Mobility shift assay.

Broadly, the inhibition is the change of the read-out against control, counted positive when it falls.

Sequence of Non-receptor tyrosine-protein kinase TYK2 (Homo sapiens) (P29597 whole entry, the tested form may be a part): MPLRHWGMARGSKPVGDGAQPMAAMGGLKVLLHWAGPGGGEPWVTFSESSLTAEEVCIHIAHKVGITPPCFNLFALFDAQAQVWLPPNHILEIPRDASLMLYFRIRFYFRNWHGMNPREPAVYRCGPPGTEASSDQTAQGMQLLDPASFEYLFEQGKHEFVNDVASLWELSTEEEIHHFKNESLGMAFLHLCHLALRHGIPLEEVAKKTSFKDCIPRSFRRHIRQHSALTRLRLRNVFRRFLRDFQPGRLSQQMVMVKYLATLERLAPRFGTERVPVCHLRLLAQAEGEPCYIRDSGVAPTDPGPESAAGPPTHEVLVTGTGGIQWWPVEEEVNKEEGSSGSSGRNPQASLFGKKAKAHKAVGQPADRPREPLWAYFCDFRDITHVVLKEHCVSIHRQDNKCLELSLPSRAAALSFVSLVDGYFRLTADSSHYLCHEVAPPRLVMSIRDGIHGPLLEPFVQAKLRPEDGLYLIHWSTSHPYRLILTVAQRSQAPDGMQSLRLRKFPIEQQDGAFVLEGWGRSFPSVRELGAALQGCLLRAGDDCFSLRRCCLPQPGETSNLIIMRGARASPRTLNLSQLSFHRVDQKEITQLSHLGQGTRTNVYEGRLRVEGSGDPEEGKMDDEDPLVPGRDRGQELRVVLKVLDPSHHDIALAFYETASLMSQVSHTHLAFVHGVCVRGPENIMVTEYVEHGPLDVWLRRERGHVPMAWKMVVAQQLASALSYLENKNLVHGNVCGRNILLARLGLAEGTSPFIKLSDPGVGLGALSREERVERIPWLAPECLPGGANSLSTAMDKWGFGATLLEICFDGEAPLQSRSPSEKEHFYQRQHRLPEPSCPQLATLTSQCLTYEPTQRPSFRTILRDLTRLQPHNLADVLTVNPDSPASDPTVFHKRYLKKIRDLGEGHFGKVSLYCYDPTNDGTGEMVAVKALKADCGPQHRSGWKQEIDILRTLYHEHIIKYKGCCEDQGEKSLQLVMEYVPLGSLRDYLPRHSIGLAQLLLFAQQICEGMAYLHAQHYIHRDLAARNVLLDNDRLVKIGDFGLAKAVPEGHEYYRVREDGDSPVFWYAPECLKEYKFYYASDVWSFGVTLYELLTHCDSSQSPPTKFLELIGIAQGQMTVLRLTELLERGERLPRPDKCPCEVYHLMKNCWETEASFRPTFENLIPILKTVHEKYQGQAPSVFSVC
Sequence of Protein kinase C beta type (Homo sapiens) (P05771 2-671 limits assumed): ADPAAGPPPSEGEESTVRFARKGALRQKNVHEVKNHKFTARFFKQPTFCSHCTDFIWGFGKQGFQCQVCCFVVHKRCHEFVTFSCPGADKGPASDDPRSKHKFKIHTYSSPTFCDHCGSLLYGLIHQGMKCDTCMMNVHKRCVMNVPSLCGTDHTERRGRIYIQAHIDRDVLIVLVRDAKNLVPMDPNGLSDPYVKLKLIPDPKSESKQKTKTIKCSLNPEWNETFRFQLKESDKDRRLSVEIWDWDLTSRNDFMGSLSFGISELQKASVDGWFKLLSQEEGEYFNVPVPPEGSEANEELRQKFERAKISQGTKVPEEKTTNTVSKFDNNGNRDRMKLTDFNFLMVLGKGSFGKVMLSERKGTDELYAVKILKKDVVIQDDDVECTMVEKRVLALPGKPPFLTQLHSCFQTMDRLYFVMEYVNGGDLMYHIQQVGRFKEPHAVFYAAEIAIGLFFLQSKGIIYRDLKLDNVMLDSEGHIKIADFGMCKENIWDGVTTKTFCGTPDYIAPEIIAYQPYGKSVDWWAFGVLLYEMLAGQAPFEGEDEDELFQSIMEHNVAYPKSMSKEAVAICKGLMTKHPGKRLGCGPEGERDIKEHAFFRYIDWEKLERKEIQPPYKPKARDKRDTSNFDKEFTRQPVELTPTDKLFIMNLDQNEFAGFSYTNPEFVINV
Sequence of Muscle, skeletal receptor tyrosine-protein kinase (Homo sapiens) (O15146 whole entry, the tested form may be a part): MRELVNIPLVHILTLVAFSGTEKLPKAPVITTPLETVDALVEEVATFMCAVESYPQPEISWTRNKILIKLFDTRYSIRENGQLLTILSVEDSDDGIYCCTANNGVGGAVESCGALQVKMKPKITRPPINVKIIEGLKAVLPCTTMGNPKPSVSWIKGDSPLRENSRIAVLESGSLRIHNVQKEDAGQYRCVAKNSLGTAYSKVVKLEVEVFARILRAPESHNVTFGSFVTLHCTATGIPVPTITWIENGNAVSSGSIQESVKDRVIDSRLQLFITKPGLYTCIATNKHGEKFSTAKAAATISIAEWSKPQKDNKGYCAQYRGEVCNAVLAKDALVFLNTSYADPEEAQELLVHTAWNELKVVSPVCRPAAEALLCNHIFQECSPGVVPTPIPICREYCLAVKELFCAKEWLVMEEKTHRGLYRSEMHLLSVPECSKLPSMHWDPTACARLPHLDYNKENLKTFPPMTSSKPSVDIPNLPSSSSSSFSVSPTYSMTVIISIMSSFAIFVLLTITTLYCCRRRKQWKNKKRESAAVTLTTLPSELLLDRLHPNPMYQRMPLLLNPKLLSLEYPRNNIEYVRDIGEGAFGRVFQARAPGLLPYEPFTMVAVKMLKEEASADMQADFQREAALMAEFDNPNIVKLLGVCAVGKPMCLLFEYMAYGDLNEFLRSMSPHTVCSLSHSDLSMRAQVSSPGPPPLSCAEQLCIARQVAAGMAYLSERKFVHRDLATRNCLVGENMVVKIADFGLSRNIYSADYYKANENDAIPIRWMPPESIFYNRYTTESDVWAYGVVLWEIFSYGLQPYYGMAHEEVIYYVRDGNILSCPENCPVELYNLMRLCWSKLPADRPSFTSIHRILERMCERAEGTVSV
Sequence of Tyrosine-protein kinase ABL2 (Homo sapiens) (P42684 whole entry, the tested form may be a part): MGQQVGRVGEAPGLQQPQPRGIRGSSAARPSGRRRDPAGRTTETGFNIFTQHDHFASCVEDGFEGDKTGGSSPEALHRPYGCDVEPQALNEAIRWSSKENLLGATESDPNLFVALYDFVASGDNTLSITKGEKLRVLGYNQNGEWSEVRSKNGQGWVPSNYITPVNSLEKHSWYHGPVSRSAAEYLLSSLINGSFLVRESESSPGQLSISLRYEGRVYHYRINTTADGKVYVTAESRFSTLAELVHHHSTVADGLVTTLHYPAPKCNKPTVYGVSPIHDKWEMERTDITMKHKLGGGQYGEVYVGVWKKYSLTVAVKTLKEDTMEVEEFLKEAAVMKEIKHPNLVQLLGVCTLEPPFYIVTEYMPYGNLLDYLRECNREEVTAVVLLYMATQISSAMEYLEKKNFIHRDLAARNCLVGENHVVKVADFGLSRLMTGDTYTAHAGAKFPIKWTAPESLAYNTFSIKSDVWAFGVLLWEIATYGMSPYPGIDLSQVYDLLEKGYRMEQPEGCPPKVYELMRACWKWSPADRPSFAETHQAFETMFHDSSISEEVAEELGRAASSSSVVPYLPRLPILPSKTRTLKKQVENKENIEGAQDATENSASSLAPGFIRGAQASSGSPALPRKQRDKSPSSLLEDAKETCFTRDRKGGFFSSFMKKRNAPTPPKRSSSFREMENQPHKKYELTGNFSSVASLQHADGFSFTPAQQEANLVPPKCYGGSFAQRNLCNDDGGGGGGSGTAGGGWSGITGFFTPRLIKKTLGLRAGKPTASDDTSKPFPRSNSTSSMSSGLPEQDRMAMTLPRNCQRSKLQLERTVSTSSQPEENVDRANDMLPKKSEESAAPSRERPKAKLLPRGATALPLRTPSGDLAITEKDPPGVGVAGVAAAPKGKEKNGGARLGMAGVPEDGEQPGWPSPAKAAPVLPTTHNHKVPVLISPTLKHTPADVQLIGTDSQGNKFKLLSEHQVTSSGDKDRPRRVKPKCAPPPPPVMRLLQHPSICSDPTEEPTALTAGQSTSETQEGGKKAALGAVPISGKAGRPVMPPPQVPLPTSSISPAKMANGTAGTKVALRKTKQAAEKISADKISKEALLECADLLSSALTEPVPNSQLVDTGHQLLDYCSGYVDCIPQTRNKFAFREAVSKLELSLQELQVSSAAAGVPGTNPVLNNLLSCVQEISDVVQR
Sequence of [Pyruvate dehydrogenase (acetyl-transferring)] kinase isozyme 4, mitochondrial (Homo sapiens) (Q16654 whole entry, looked up, the tested form may be a part): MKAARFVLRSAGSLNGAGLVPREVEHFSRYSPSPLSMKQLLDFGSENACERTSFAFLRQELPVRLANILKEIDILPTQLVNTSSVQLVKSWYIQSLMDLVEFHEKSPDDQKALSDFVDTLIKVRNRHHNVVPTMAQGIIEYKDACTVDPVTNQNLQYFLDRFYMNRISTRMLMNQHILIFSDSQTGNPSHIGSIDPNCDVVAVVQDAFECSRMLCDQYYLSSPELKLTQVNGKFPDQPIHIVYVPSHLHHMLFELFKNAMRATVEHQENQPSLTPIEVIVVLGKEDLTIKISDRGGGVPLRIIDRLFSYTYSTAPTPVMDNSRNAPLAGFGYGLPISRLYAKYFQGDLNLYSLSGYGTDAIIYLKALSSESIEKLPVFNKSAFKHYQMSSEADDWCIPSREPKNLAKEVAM
Sequence of SRSF protein kinase 2 (Homo sapiens) (P78362 whole entry, looked up, the tested form may be a part): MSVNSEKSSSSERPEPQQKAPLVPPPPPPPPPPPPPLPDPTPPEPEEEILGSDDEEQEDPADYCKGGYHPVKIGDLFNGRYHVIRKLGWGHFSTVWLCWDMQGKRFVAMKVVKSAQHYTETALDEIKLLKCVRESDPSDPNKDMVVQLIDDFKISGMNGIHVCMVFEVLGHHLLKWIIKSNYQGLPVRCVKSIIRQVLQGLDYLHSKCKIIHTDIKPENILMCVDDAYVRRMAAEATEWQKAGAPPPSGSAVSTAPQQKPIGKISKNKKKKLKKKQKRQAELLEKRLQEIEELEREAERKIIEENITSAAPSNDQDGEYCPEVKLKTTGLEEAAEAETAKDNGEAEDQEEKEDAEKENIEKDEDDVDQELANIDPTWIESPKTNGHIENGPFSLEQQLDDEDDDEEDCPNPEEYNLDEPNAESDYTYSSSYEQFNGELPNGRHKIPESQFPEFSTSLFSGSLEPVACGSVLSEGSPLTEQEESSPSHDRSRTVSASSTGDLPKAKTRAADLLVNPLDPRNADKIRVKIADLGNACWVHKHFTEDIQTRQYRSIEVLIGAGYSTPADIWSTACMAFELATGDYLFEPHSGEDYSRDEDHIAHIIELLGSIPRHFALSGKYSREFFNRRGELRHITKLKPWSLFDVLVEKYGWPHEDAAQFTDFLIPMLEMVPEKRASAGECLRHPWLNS

As for `Cc1cc(C)c(CNC(=O)c2cc(Br)c3c(c2C)O[C@@](C)([C@H]2CC[C@H](N(C)C)CC2)O3)c(=O)[nH]1`, the inhibition is 0.7% in assay [1]; 3.2% in [2]; -2.6% in assay [3]; 3.4% in assay [4]; 0% in assay [5]; -3.1% in assay [6]. The inhibition is -8.9% in assay [7]; -3% in assay [8]; -4.1% in [9]; -5.1% in assay [10]; -1.6% in assay [11]; -8.2% in assay [12]. In addition, the inhibition in assay [13] was -2.7%; in assay [14], -0.2%; in assay [15], -2.4%; in assay [16] it was -5.8%; in [17], -7.4%; in assay [18], -4%. Besides, the inhibition is -7.4% in assay [19], -1.5% in assay [20], 9.8% in assay [21] and -4.7% in assay [22].

In the case of `Cc1cc(C)c(CNC(=O)c2cc(Cl)c3c(c2C)O[C@@](C)([C@H]2CC[C@H](N(C)C)CC2)O3)c(=O)[nH]1` [VALEMETOSTAT], the inhibition in assay [1] was 5.7%; in [2] it was -1.1%; in assay [3], -4%; in assay [4], 14.9%; in assay [5], 1%; in assay [6], -5.7%. Further, the inhibition in [7] is -4.9%; in assay [8], 2.9%; in [9], -4.3%; in [10], -5.5%; in assay [11], 0%; in [12], -3.4%. Also, the inhibition in assay [13] was -1.9%; in [14], 0.2%; in assay [15], -8.8%; in assay [16] it was -4%; in assay [17], -5%; in assay [18] it was -5%. In addition, the inhibition in assay [19] is -8.7%; in assay [20] it was -2.3%; in [21] it was 0.6%; in assay [22] it was 0.5%.
